{"source": "patent US6599501B1", "about": "“Immunomodulators” (Steeno Research Group A/S, priority 1994, dated 2003)", "format_in_all_cases": "cell-based", "key": {"[1]": {"tested_on": "spontaneous IL-8 production by human monocytes", "experiment": "Spontaneous IL-8 production by purified cultured human monocytes (IL-8 ELISA)", "conditions": "any concentration of IT9302 between 0.1 and 1000 ng/ml; this and following examples"}, "[2]": {"tested_on": "IL-1β induced IL-8 production by human peripheral blood mononuclear cells (PBMC)", "experiment": "IL-1β induced IL-8 production by human peripheral blood mononuclear cells (IL-8 ELISA)", "conditions": "r-hIL-1β 1 ng/ml; 48 hours total incubation", "procedure": "PBMC was purified from heparinized blood of normal human donors. Following gradient centrifugation with-Lymphoprep™ (Nycomed Pharma, Oslo, Norway), the mononuclear cells were diluted to 2×10^6 cells/ml in LPS-free RPMI 1640 medium (Gibco Cat.No. 6187-010) containing 1% sterile filtered heat-inactivated fetal calf serum and penicillin (10,000 IE/ml), streptomycin (10 mg/ml) and gentamycin (2.5 mg/ml). Cells were cultured in 24 wells Nunc Micro Plates (Nunc, Denmark) and in the presence of different concentration of IT9302 (0, 1 μg, 100 ng, 10 ng, 1 ng, 0.1 ng, 0.01 ng/ml) for 24 hours. Following 24 hours of incubation, another dose of IT9302 was added once more, and 1 hour later r-hIL-1β (1 ng/ml) was added to the cell cultures. Supernatants were collected after a total of 48 hours of incubation, and the concentration of the secreted IL-8 was measured by IL-8 ELISA by using an IL-8 ELISA Kit (Dainippon Pharmaceutical Co. Ltd, Osaka, Japan). Briefly, standards and cell supernatants were incubated for one hour and in duplicates at 20° C. on a micro-plate shaker. Then after washing, a second antibody was added for one hour, followed by one hour of incubation with peroxidase-labelled goat anti-rabbit IgG. […] Optical density (OD) was measured in an ELISA reader at 490 nm. IL-8 concentration was calculated by a calibration curve of absorbance of unknown vs concentrations of IL-8 standards. […]"}, "[3]": {"tested_on": "IL-4 production by cultured normal human CD4+ T cells", "experiment": "IL-4 production by CD4+ T lymphocytes (ECL-Western blotting)", "conditions": "100 ng/ml, 3 days, cytosolic fractions", "procedure": "CD4+ T lymphocytes were purified from heparinized normal human blood. Following Lymphoprep™ (Nycomed Pharma, Oslo, Norway) gradient centrifugation, the mononuclear cells were further sorted at 4° C. using Dynabeads (Dynal AS, Norway) coated with monoclonal anti-CD4 antibodies. The beads were detached by adding polyclonal anti-mouse antibody (Dynal AS, Norway). The purity of the positively selected cells were higher than 99% as judged by FACS analysis. […]\nCells or freeze-dried cell culture supernatants were used for IL-4 protein content determination. […] The blots were then incubated with a polyclonal goat anti-human IL-4 antibody (R&D Systems, UK) followed by a horseradish peroxidase-labelled secondary antibody (Cat.no. RPN 2106 ECL, Amersham, UK), and the immunostaining was detected by exposing a film (Kodak X-OMAT-S, USA) for 90 seconds.\nThus, CD4+ T cells, purified as described in “Methods for T cell chemotaxis”, and cultured as described in the section “Determination of IL-4 production by CD4+ T lymphocytes”, were stimulated for 3 days with IT9302 (10 ng/ml) or IL-10 (100 ng/ml). Cytosolic fractions were collected and analyzed for their IL-4 content using Western blotting (FIG. 11) and a goat anti-human IL-4 polyclonal antibody."}, "[4]": {"tested_on": "IRAP production by human monocytes", "experiment": "Production of interleukin-1 receptor antagonist protein (IRAP) by human monocytes (IRAP ELISA)", "conditions": "monocytes stimulated 24 hours", "procedure": "PBMC was purified as described above. PBMC was cultured in RMPI 1640, 10% sterile heat-inactivated fetal calf serum (including penicillin 10,000 IE/ml, streptomycin 10 mg/ml, gentamycin 2.5 mg/ml) and the cell concentration was 5×10^6 cells/ml. The monocytes were then purified by standard plastic adherence technique. Monocytes were then cultured in RPMI 1640 with 2% FCS (2.5×10^6 cells/ml) and with different dilutions of rhIL-10 or IT9302. The cells were stimulated for 24 hours and the supernatants were collected for IRAP determination. IRAP ELISA was carried out by using Human IL-1ra Quantikin Immunoassay Kit from R&D Systems Europe Ltd. (Cat.No. DRA 00, Abingdon, Oxon, UK).\nThe test was performed as described in “Determination of IRAP concentration”."}, "[5]": {"tested_on": "class II MHC molecule expression on human monocytes", "experiment": "Class II MHC antigen expression on monocytes (rosetting with HLA class II Dynabeads)", "procedure": "PBMC was purified as described above and monocytes isolated by plastic adherence technique. Monocytes were then cultured in RPMI 1640 with 2% FCS including penicillin 10,000 IE/ml, streptomycin 10 mg/ml, gentamycin 2.5 mg/ml at a cell concentration of 3×10^6/ml. Cells were stimulated for 40 hours in microwells (Nunc, Denmark) with 100 ng/ml rhIL-10, or IT9302 1 μg/ml, 100 ng/ml, 10 ng/ml. At the end of stimulation, the supernatants were removed and the cells were detached from the plastic by freezing at −20° C. for 20 minutes. The cells were collected in 1 ml of cold HBSS with 1% FCS and sorted at 20° C. by using 50 μl/ml Dynabeads M 450 coated with monoclonal antibody for HLA class II β chain (Cat. No. 210.03). After 20 minutes of incubation, the cells were washed 3 times with cold HBSS with 1% FCS and collected on a magnetic separation device. The cells were diluted in the above buffer and stained with methylene blue, and the resetting cells (cells carrying Dynabeads with HLA class II mAb) were counted."}}, "data": [{"substance": "H-AYMTMKIRN-OH [IT9302, NH2-Ala-Tyr-Met-Thr-Met-Lys-Ile-Arg-Asn-COOH]", "values": [{"measurement": "effect on viability of cells", "setting": "[1]", "result": "did not in this or in the following examples affect viability"}]}, {"substance": "NH2-Ser-Pro-Gly-Gln-Gly-Thr-Gln-Ser-Glu-COOH (H-SPGQGTQSE-OH) [IT9301, nonapeptide from the N-terminal end of hIL-10, control for negative results]", "values": [{"measurement": "inhibition of IL-1β induced production of IL-8", "setting": "[2]", "result": "did not induce any inhibition at all"}]}, {"substance": "rhIL-10: Recombinant human interleukin 10 obtained from Pepro Tech Inc.", "values": [{"measurement": "production of IL-4 by CD4+ T cells", "setting": "[3]", "result": "induce the production of IL-4"}, {"measurement": "induction of IRAP production", "setting": "[4]", "result": "induction of IRAP"}, {"measurement": "inhibition of class II MHC expression", "setting": "[5]; 40 hours stimulation", "result": "inhibits class II MHC expression"}, {"measurement": "Number of rosetting monocytes", "setting": "[5]; stimulation 100 ng/ml, 40 hours", "result": "4.6 ± 1.4 × 10^4"}]}]}
